For data set [1], the system named is Akt (Ser473 and T308) phosphorylation. Put plainly: Basal Akt phosphorylation in IPF fibroblasts (Western blot). It is filed as cell-based, human. To be noted: for suppression of basal Akt (Ser473) phosphorylation: dose-dependent, FIG. 1A/1B. On the procedure:
(§1) Cell Culture and Reagents. Lung fibroblasts were isolated from patients undergoing surgical biopsy for the diagnosis of interstitial lung disease or lung transplant for IPF, and non-neoplastic tissue was obtained from patients undergoing surgical lung cancer resection, as described previously (Chang W. T. et al., J Biol Chem., 2001, 276, 2221-7). Fibroblasts were cultured in Dulbecco's modified Eagle's medium (DMEM) supplemented with 10% fetal bovine serum (FBS) at 5% CO2 at 37° C., and were used for studies for up to 5 passages after the initial preparation. For each experiment, cells were plated in culture vessels in DMEM complete medium and cultured until 70-80% in confluence, unless otherwise indicated.
Lung tissue was obtained from patients undergoing surgical biopsy for the diagnosis of interstitial lung disease or lung transplant for IPF, and non-neoplastic tissue was obtained from patients undergoing surgical lung cancer resection. The tissue was minced into small pieces with a scalpel and digested with type I collagenase (1 mg/ml; Invitrogen) and hyaluronidase (125 units/ml; Sigma) at 37° C. with agitation for 18 h in Dulbecco's modified Eagle's medium (DMEM; Invitrogen) supplemented with 10% fetal bovine serum. The dissociated tissues were incubated without shaking for 5 min at room temperature, followed by the separation of cell-enriched supernatant into a new tube. The cell fraction was centrifuged at 250×g for 5 min, and the pellet was then resuspended in DMEM with 10% fetal bovine serum. […] Surviving fibroblasts were cultured in DMEM supplemented with 10% fetal bovine serum at 5% CO2 at 37 ° C. […]
Western Blot Analysis. Western blot analysis and band intensity quantitation were performed as described previously (Chang W. T. et al., J Biol Chem., 2001, 276, 2221-7). Briefly, the protein concentration was measured by Bradford assay (Bio-Rad) according to the manufacturer's instructions. […] The blot was visualized by enhanced chemiluminescence (GE Healthcare) and analyzed using a Kodak Image Station 4000R system (Carestream Health, Rochester, N.Y.). […]

The conditions of data set [2]: mice, PP242 30 mg/kg oral daily.
Protocol: Six-week-old male C57BL/6 mice weighing between 20 to 23 g were obtained from The Jackson Laboratory (Bar Harbor, Me.) and all care was in accordance with the National Institutes of Health Guide for Animal Welfare Act. […] All mice were sacrificed on day 14 and the right lungs were first fixed by inflation with buffered 10% formalin solution, then incubated in the same solution for 24 hours. After paraffin-embedding, sections were processed, and stained with hematoxylin and eosin (H&E) for light microscopy. The left lungs were frozen in liquid nitrogen for subsequent analysis of hydroxyproline content.
For data set [3], the system named is bleomycin-induced pulmonary fibrosis. Kind of data set: Murine model of bleomycin-induced pulmonary fibrosis.
Protocol: Murine model of bleomycin-induced pulmonary fibrosis. Six-week-old male C57BL/6 mice weighing between 20 to 23 g were obtained from The Jackson Laboratory (Bar Harbor, Me.) and all care was in accordance with the National Institutes of Health Guide for Animal Welfare Act. Mice were administrated 0.1 ml of sterile saline (N=5) or bleomycin (Blenoxane, Novaplus, 1.5 U/kg of body weight; VHA Inc., Nippon Kayaku Co., Tokyo, Japan) at day 0 via intratracheal instillation under anesthesia (Krishna, G. et al., Am J Pathol. 2001, 158, 997-1004). […] All mice were sacrificed on day 14 and the right lungs were first fixed by inflation with buffered 10% formalin solution, then incubated in the same solution for 24 hours. After paraffin-embedding, sections were processed, and stained with hematoxylin and eosin (H&E) for light microscopy. The left lungs were frozen in liquid nitrogen for subsequent analysis of hydroxyproline content.
Histological Scoring of Fibrosis. The severity of fibrosis from each lung section was assessed by Ashcroft score (Ashcroft T. et al., J Clin Pathol, 1988, 41, 467-70). Briefly, the grade of lung fibrosis was scored on a scale from 0 to 8 by examining 30 randomly chosen fields per sample at a magnification of ×100. Criteria for grading lung fibrosis were as follows: grade 0, normal lung; grade 1, minimal fibrous thickening of alveolar or bronchiolar walls; grade 3, moderate thickening of walls without obvious damage to lung architecture; grade 5, increased fibrosis with definite damage to lung structure and formation of fibrous bands or small fibrous masses; grade 7, severe distortion of structure and large fibrous areas; grade 8, total fibrous obliteration of fields. If there was difficulty in deciding between two odd-numbered categories, the field would be given the intervening even-numbered grade.
The test system of data set [4] is Akt (Ser473 and T308) activation. Put plainly: TGF-β-mediated activation of Akt in control lung fibroblasts (Western blot). It is filed as cell-based, human. On the procedure: as §1
(§2) Western Blot Analysis. Western blot analysis and band intensity quantitation were performed as described previously (Chang W. T. et al., J Biol Chem., 2001, 276, 2221-7). Briefly, the protein concentration was measured by Bradford assay (Bio-Rad) according to the manufacturer's instructions. An equal amount of protein was separated by SDS-PAGE and transferred to polyvinylidene difluoride membrane. […] The blot was visualized by enhanced chemiluminescence (GE Healthcare) and analyzed using a Kodak Image Station 4000R system (Carestream Health, Rochester, N.Y.).
In further studies, we examined if inhibition of mTORC1 and/or mTORC2 would limit TGF-β-mediated induction of stromal genes.

Data set [5] concerns TGF-β-stimulated control lung fibroblasts. Kind of data set: TGF-β-mediated induction of stromal proteins in control lung fibroblasts (Western blot). Type of data set: cell-based, human. On the procedure: as §1, §2
In further studies, we examined if inhibition of mTORC1 and/or mTORC2 would limit TGF-β-mediated induction of stromal genes. […]

A further data set deals with IPF fibroblasts. Put plainly: Basal expression of stromal proteins in IPF fibroblasts (Western blot). It is filed as cell-based, human. On the procedure: as §1
Lung tissue was obtained from patients undergoing surgical biopsy for the diagnosis of interstitial lung disease or lung transplant for IPF, and non-neoplastic tissue was obtained from patients undergoing surgical lung cancer resection. The tissue was minced into small pieces with a scalpel and digested with type I collagenase (1 mg/ml; Invitrogen) and hyaluronidase (125 units/ml; Sigma) at 37° C. with agitation for 18 h in Dulbecco's modified Eagle's medium (DMEM; Invitrogen) supplemented with 10% fetal bovine serum. The dissociated tissues were incubated without shaking for 5 min at room temperature, followed by the separation of cell-enriched supernatant into a new tube. The cell fraction was centrifuged at 250×g for 5 min, and the pellet was then resuspended in DMEM with 10% fetal bovine serum. […] Surviving fibroblasts were cultured in DMEM supplemented with 10% fetal bovine serum at 5% CO2 at 37 ° C. Each fibroblast culture was frozen at its earliest available passage and was used for studies for up to five passages. For each experiment, cells were plated in culture vessels in DMEM and cultured until 70-80% confluent, unless indicated otherwise. Cells were subjected to starvation by washing cells twice with 1× phosphate-buffered saline (PBS), followed by the addition of DMEM and 0.1% serum to each well and incubation for an additional 24 h. In the experiments for cell death induced by Glu-plasminogen (American Diagnostica Inc., Stamford, Conn.), phenol red-free DMEM was used.
Western Blot Analysis. Western blot analysis and band intensity quantitation were performed as described previously (Chang W. T. et al., J Biol Chem., 2001, 276, 2221-7). Briefly, the protein concentration was measured by Bradford assay (Bio-Rad) according to the manufacturer's instructions. An equal amount of protein was separated by SDS-PAGE and transferred to polyvinylidene difluoride membrane. […] The blot was visualized by enhanced chemiluminescence (GE Healthcare) and analyzed using a Kodak Image Station 4000R system (Carestream Health, Rochester, N.Y.). […]

Another data set addresses mTORC1 (Homo sapiens, UniProt P42345). As to conditions: in vitro; cited from earlier work.
The next data set addresses mTORC2 (Homo sapiens, UniProt P42345). As to conditions: in vitro; cited from earlier work.
The mark [6] stands for this setting: PP242 30 mg/kg oral daily from Day -1, bleomycin 1.5 U/kg intratracheal, Day 14, vs bleomycin alone.
The mark [7] stands for this setting: mouse lung, PP242 30 mg/kg oral.
[8] abbreviates: control lung fibroblasts + TGF-β.
Setting [9] is: TGF-β-treated control fibroblasts.

`CC(C)n1nc(-c2cc3cc(O)ccc3[nH]2)c2c(N)ncnc21` [PP242]: the “suppression of basal Akt (Ser473) phosphorylation” value in data set [1] was “suppressed”. For the same compound, in data set [2], the tolerability entry is given as “well tolerated”. Further, in data set [3] (setting [6]), the “reduction in hydroxyproline content” value amounted to 40% and the “reduction in the Ashcroft score” value turned out to be 70%. The “positive staining for picosirius red (marker of new collagen synthesis)” value in data set [3] (mouse lung after bleomycin, PP242 30 mg/kg oral) is recorded as “marked reduction”. In addition, in data set [3] (setting [7]), the “accumulation of α-SMA-positive fibroblasts following bleomycin” value is recorded as “inhibited”; the “bleomycin-mediated induction of MTS1/S100A4” value is recorded as “significantly inhibited”; the “bleomycin-mediated induction of PAI-1” value is listed as “a trend, but not a statistically significant inhibition”; the “bleomycin-mediated induction of SPARC” value is “significantly inhibited”. Further, the “bleomycin-mediated induction of matrix metalloproteinase 7/matrilysin 1 (MMP-7)” value in data set [3] (setting [7]) is given as “significantly inhibited”. Also, the “Ashcroft score (scale from 0 to 8)” value in data set [3] (saline+PP242 group, no bleomycin) is “zero”.

Take `COc1ccc(-c2ccc3c(N4CCOCC4)nc(N4C[C@@H](C)O[C@@H](C)C4)nc3n2)cc1CO` [Ku-0063794]: the “suppression of basal Akt (T308) phosphorylation” value in data set [1] (FIG. 1B) is listed as “more effective than rapamycin or PP242”. Further, the “suppression of basal Akt (Ser473) phosphorylation” value in data set [1] is “suppressed”. Further, in data set [4], the “blocking of TGF-β activation of Akt (Ser473)” value is “blocked” and the “blocking of TGF-β activation of Akt (T308)” value is recorded as “blocked”. Besides, in data set [5] (setting [8]), the “inhibition of TGF-β induction of PAI-1” value amounted to 30%.

With `CO[C@H]1C[C@@H]2CC[C@@H](C)[C@@](O)(O2)C(=O)C(=O)N2CCCC[C@H]2C(=O)O[C@H]([C@H](C)C[C@@H]2CC[C@@H](O)[C@H](OC)C2)CC(=O)[C@H](C)/C=C(\C)[C@@H](O)[C@@H](OC)C(=O)[C@H](C)C[C@H](C)/C=C/C=C/C=C/1C` [rapamycin], the “inhibition of basal expression of type I collagen” value in the data set on IPF fibroblasts is listed as 50%. In addition, in data set [5] (setting [8]), the “blocking of TGF-β induction of FN” value was 30%-50%, the “blocking of TGF-β induction of SPARC” value is 30%-50%, the “blocking of TGF-β induction of α-SMA” value is given as 30%-50% and the “inhibition of TGF-β induction of PAI-1” value is listed as 30%. The “inhibition of type I collagen in the presence of TGF-β” value in data set [5] (control lung fibroblasts + TGF-β, FIG. 2C) was 45%.

Regarding `CC(C)n1nc(-c2cccc(C(=O)NC3=NCCS3)c2)c2c(N)ncnc21` [PP30], at mTORC1, the “inhibition of mTOR in mTORC1” value is recorded as “inhibit”. In addition, the “inhibition of mTOR in mTORC2” value on mTORC2 is “inhibit”.

`O=c1[nH]c2ccccc2n1C1CCN(Cc2ccc(-c3nc4cc5[nH]cnc5cc4nc3-c3ccccc3)cc2)CC1` [Akti VIII]: in the data set on IPF fibroblasts (FIG. 3C), the “suppression of basal FN expression (in words)” value is on record as “suppressed”, the “suppression of basal type I collagen expression (in words)” value was “suppressed” and the “suppression of basal α-SMA expression (in words)” value is on record as “suppressed”. In data set [5] (setting [9]), the “inhibition of TGF-β induction of FN (in words)” value is “inhibited” and the “inhibition of TGF-β induction of type I collagen (in words)” value is on record as “inhibited”.

These data come from patent US20110319405A1, “Treatment and prevention of diffuse parenchymal lung disease by selective active-site mTOR inhibitors” (The Board of Trustees of the Leland Stanford Junior …, priority 2010, published 2011).
